Values quoted from earlier work in publication PMC10014483 (Bioorganic & Medicinal Chemistry Letters, 2023).

How the values were obtained:
[1] = mice
SARS-CoV-2 = conditions: transgenic mouse model of SARS-CoV-2 infection, orally effective

Structure (SMILES): CC(C)(C)OC(=O)Nc1cccn([C@@H](CC2CC2)C(=O)N[C@@H](C[C@@H]2CCNC2=O)C(=O)C(=O)NCc2ccccc2)c1=O [Compound 13b]
- toxicity [1]: low toxicity

Structure (SMILES): CC1(C)[C@@H]2[C@@H](C(=O)N[C@H](C=O)C[C@@H]3CCNC3=O)N(C(=O)COc3ccc(OC(F)(F)F)cc3)C[C@@H]21 [MI-09]
- viral load in the lungs and lung lesions (SARS-CoV-2): significantly reduced

Structure (SMILES): CC(C)(C)[C@H](NC(=O)C(F)(F)F)C(=O)N1C[C@H]2[C@@H]([C@H]1C(=O)N[C@H](C#N)C[C@@H]1CCNC1=O)C2(C)C [Nirmatrelvir]
- oral bioavailability: unsatisfied
- plasma half-life: short
